Laboratory results reported in ChEMBL document CHEMBL3526141, “Characterization of human liver enzymes involved in the biotransformation of boceprevir, a hepatitis C virus protease inhibitor” (Drug Metab Dispos, 2011).
Blank lines part the entries; values can stand above or below the compound they belong to.

How the values were obtained:
[1] = molecular target: T1, Aldo-keto reductase family 1 member C2 (Homo sapiens, UniProt P52895); assay: Activity of human recombinant AKR1C2 expressed in HEK293 cells assessed as (1R,2S,5S)-N-((2R,3R)-4-amino-1-cyclobutyl-3-hydroxy-4-oxobutan-2-yl)-3-((S)-2-(3-tert-butylureido)-3,3-dimethylbutanoyl)-6,6-dimethyl-3-azabicyclo[3.1.0]hexane-2-carboxamide formation at 20 uM after 120 mins in presence of NADPH by LC-MS/MS/FSA method; assay type: ADME, cell-based; settings: hek293, 2 h
T1 sequence (P52895 whole entry): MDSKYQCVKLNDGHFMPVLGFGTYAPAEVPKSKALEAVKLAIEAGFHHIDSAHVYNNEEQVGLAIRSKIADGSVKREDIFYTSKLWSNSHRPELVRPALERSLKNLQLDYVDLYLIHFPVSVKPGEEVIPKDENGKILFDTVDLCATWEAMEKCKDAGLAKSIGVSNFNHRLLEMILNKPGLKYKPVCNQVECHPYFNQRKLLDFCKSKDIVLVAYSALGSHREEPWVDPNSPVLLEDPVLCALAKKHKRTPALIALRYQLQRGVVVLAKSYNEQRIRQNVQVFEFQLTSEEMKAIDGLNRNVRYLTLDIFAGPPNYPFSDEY

[2] = Drug excretion in human feces; assay type: ADME; parameters: dosed compound name [14C]-SCH 534128
[3] = test system: Liver cytosol; assay: (§1) Drug metabolism in human liver cytosol at 20 uM assessed as (1R,2S,5S)-N-((2S,3R)-4-amino-1-cyclobutyl-3-hydroxy-4-oxobutan-2-yl)-3-((S)-2-(3-tert-butylureido)-3,3-dimethylbutanoyl)-6,6-dimethyl-3-azabicyclo[3.1.0]hexane-2-carboxamide formation in presence of allopurinol by LC-MS/MS/FSA method; assay type: ADME
[4] = Drug excretion in human feces assessed as carbonyl reduction pathway related metabolites level; assay type: ADME; parameters: dosed compound name [14C]boceprevir
[5] = test system: Liver cytosol; assay: (§2) Drug metabolism in human liver cytosol at 20 uM assessed as (1R,2S,5S)-N-((2S,3R)-4-amino-1-cyclobutyl-3-hydroxy-4-oxobutan-2-yl)-3-((S)-2-(3-tert-butylureido)-3,3-dimethylbutanoyl)-6,6-dimethyl-3-azabicyclo[3.1.0]hexane-2-carboxamide formation in presence of flufenamic acid by LC-MS/MS/FSA method; assay type: ADME
[6] = test system: Liver cytosol; assay: as §1, with “formation at 20 uM after 60 mins” for “formation”, “AKR inhibitor ibuprofen” for “allopurinol”; assay type: ADME; settings: 1 h
[7] = test system: Liver cytosol; assay: Drug metabolism in human liver cytosol at 20 uM assessed as (1R,2S,5S)-N-((2S,3R)-4-amino-1-cyclobutyl-3-hydroxy-4-oxobutan-2-yl)-3-((S)-2-(3-tert-butylureido)-3,3-dimethylbutanoyl)-6,6-dimethyl-3-azabicyclo[3.1.0]hexane-2-carboxamide formation in presence of menadione by LC-MS/MS/FSA method; assay type: ADME
[8] = test system: Liver cytosol; assay: as §1, with “formation at 20 uM after 60 mins” for “formation”, “pre-incubation with ritonavir” for “allopurinol”; assay type: ADME; settings: 1 h
[9] = test system: Liver cytosol; assay: as §1, with “formation at 20 uM after 60 mins” for “formation”, “AKR inhibitor ibuprofen” for “allopurinol”; assay type: ADME; settings: 1 h; remark: listed apart in the source
[10] = as §2, with “S9 fraction” for “cytosol”, “mefenamic” for “flufenamic”; assay type: ADME, subcellular; settings: s9, 20 µM
[11] = Drug metabolism in human liver S9 fraction at 20 uM assessed as (1R,2S,5S)-N-((2S,3R)-4-amino-1-cyclobutyl-3-hydroxy-4-oxobutan-2-yl)-3-((S)-2-(3-tert-butylureido)-3,3-dimethylbutanoyl)-6,6-dimethyl-3-azabicyclo[3.1.0]hexane-2-carboxamide formation in presence of BNPP by LC-MS/MS/FSA method; assay type: ADME, subcellular; settings: s9, 20 µM
[12] = test system: Liver cytosol; assay: as §1, with “formation at 20 uM after 60 mins” for “formation”, “ketoconazole” for “allopurinol”; assay type: ADME; settings: 1 h
[13] = molecular target: T1, Aldo-keto reductase family 1 member C2; assay: Drug metabolism in human recombinant AKR1C2 expressing HEK293 cells treated with 20 uM boceprevir assessed as 100 uM diazepam-mediated inhibition of AKR1C2-mediated metabolite formation after 120 mins in presence of NADPH by LC-MS/MS/FSA method; assay type: ADME, cell-based; parameters: interact cpd dose 100 uM; settings: hek293, 2 h
[14] = Drug metabolism in human liver mitochondria treated with 20 uM assessed as compound formation in presence of NADPH generating system by LC-MS/MS/FSA method; assay type: ADME
[15] = molecular target: T2, Aldo-keto reductase family 1 member C3 (Homo sapiens, UniProt P42330); assay: Drug metabolism in human recombinant […] HEK293 cells treated with 20 uM boceprevir assessed as 1 mM BNPP-mediated inhibition of AKR1C3-mediated metabolite formation after 120 mins in presence of NADPH by LC-MS/MS/FSA method; assay type: ADME, cell-based; parameters: interact cpd dose 1 mM; settings: hek293, 2 h
T2 sequence (P42330 whole entry): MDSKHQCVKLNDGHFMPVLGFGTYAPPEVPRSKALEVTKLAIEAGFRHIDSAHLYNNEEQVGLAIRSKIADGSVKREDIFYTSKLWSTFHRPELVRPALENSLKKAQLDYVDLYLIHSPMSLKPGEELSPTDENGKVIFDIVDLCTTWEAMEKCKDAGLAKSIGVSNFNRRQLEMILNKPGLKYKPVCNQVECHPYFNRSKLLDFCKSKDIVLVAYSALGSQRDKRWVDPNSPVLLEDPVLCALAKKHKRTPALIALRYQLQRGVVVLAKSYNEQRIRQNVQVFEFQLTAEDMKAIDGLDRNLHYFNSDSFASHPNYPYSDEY

[16] = molecular target: T2, Aldo-keto reductase family 1 member C3; assay: Drug metabolism in human recombinant […] HEK293 cells treated with 20 uM boceprevir assessed as 100 uM flufenamic acid-mediated inhibition of AKR1C3-mediated metabolite formation after 120 mins in presence of NADPH by LC-MS/MS/FSA method; assay type: ADME, cell-based; parameters: interact cpd dose 100 uM; settings: hek293, 2 h
[17] = test system: Liver cytosol; assay: Ratio of Vmax to Km for drug metabolism in human liver cytosol assessed as (1R,2S,5S)-N-((2R,3R)-4-amino-1-cyclobutyl-3-hydroxy-4-oxobutan-2-yl)-3-((S)-2-(3-tert-butylureido)-3,3-dimethylbutanoyl)-6,6-dimethyl-3-azabicyclo[3.1.0]hexane-2-carboxamide formation per mg protein after 60 mins by LC-MS/MS/FSA method; assay type: ADME; settings: 1 h

Compound recovery [1]: metabolite_detected | Radiolabel recovery [2]: metabolite_not_detected | Compound recovery [3]: metabolite_detected | Radiolabel recovery [4]: 22% | Compound recovery [5]: metabolite_not_detected | Compound recovery [6]: metabolite_not_detected | Compound recovery [7]: metabolite_not_detected | Compound recovery [8]: metabolite_detected | Compound recovery [9]: metabolite_not_detected | Compound recovery [10]: metabolite_not_detected | Compound recovery [11]: metabolite_not_detected | Compound recovery [12]: metabolite_detected
SMILES: CC(C)(C)NC(=O)N[C@H](C(=O)N1C[C@H]2[C@@H]([C@H]1C(=O)NC(CC1CCC1)C(=O)C(N)=O)C2(C)C)C(C)(C)C (some centres not stated) [BOCEPREVIR]

inhibition (INH) [13]: > 89% | Compound recovery [14]: 7% | inhibition (INH) [15]: 69% | inhibition (INH) [16]: 93%
SMILES: CC(C)(C)NC(=O)N[C@H](C(=O)N1C[C@H]2[C@@H]([C@H]1C(=O)N[C@@H](CC1CCC1)[C@@H](O)C(N)=O)C2(C)C)C(C)(C)C

Vmax/Km [17]: 30.9 µL/min
SMILES: CC(C)(C)NC(=O)N[C@H](C(=O)N1C[C@H]2[C@@H]([C@H]1C(=O)N[C@H](CC1CCC1)C(=O)C(N)=O)C2(C)C)C(C)(C)C
